Data from patent US20250188118A1, “LIQUID PHASE PEPTIDE SYNTHESIS METHODS” (AMGEN INC., priority 2023, published 2025).
Converted amounts (≈) assume the structure as drawn.

Tests used:
[1] = C18 tag solubility in screening solvents (slurry agitated overnight, supernatant assayed by calibrated HPLC); format: physicochemical; settings: organic solvent or mixture, thermodynamic from solid, 20 °C
Method: Provided in this section is an analysis of the solubility of the C18 tag in various organic solvents. All starting materials are either commercially available from Sigma-Aldrich, Oakwood Chemicals, ChemPep Inc., CombiBlocks, or similar vendors, unless otherwise noted, or known in the art and may be synthesized by employing known procedures using ordinary skill.
(3,4,5-trioctadecoxyphenyl)methanol (200 mg) was measured out into a series of 1-dram vials. 1 mL of a screening solvent was added to its corresponding 1-dram vial. The slurry vials were placed on a shaker plate set to 20° C. and agitated overnight. Following agitation, the slurries were transferred to centrifuge tubes and the supernatant was isolated. 100 μL of the isolated supernatant was diluted in 10 mL THF to provides solutions for HPLC analysis using the Agilent 1290 Infinity II system with a Cortecs UPLC C8 1.6 μm 2, 1×150 mm column with a dilution factor of 100. A typical run through the HPLC instrument used a column temperature of 30° C.; an injection volume of 1 μL; a method length of 15 min; a flow rate of 0.3 mL/min; UV Detection: 220 nm; Mobile Phase A: 0.1% TFA in water; Mobile Phase B: 0.1% TFA in ACN; HPLC Gradient: 0 min—95:5 (A:B), 10 min—5:95 (A:B), 13 min—95:5 (A:B). The sample solutions were assayed on a calibrated LC system, and the corresponding C18 tag concentrations are reported below.

[2] = in water at 23° C.; cited from earlier work

CCCCCCCCCCCCCCCCCCOc1cc(CO)cc(OCCCCCCCCCCCCCCCCCC)c1OCCCCCCCCCCCCCCCCCC [C18 Tag, (3,4,5-trioctadecoxyphenyl)methanol]
solubility ([1]; solvent 2-Me-THF): 172 mg/mL (≈ 189 mM) | solubility ([1]; solvent CPME): 6.8 mg/mL (≈ 7.44 mM) | solubility ([1]; solvent Heptanes): 1.63 mg/mL (≈ 1.78 mM) | solubility ([1]; solvent MTBE): 43.8 mg/mL (≈ 48 mM) | solubility ([1]; solvent PhMe): 57.8 mg/mL (≈ 63.3 mM) | solubility ([1]; solvent THF): ≥ 200 mg/mL | solubility ([1]; solvent iPrOAc): 1.81 mg/mL (≈ 1.98 mM)

CC1CCCO1 (centres unmarked) [Example 2-MeTHF, 2-methyltetrahydrofuran]
miscibility in water [2]: 14 g/100 g
